Assay results as given in US20040102454A1, “Phenylahistin and the phenylahistin analogs, a new class of anti-tumor compounds” (priority 1998, published 2004).
Values joined by “and” are separate entries in the source; they are usually repeats but may differ in a detail not shown here. Identical values can stand only once. One block for each molecule: values may come before it.

What was measured:
PARP in Jurkat cells = experiment: Cleavage of poly(ADP-ribose) polymerase (PARP), western blotting; format: cell-based; details: 10 hours after exposure
Description: In order to assess the ability of t-butyl-phenylahistin to induce apoptosis in Jurkat cells, cleavage of poly(ADP-ribose) polymerase (PARP) was monitored. PARP is a 116 kDa nuclear protein that is one of the main intracellular targets of Caspase-3. The cleavage of PARP generates a stable 89 kDa product, and this process can be easily monitored by western blotting. Cleavage of PARP by caspases is one of the hallmarks of apoptosis, and as such serves as an excellent marker for this process.

[1] = system: Microtubule protein from bovine brain; experiment: Microtubule protein polymerization assay (turbidity); format: biochemical; details: microtubule protein 1.5 mg/ml (Table 4); read-out: IC50 for Microtubule Protein Polymerization
Method: Microtubule protein was prepared from bovine brain tissue by two cycles of assembly and disassembly according to the method of Tiwari, S. C. et al. Anal. Biochem, (1993), 215, 96-103. Tubulin was purified from microtubule protein by phosphocellulose chromatography see Algaier, J. et al. Biochim. Biophys. Acta, (1988), 954, 235-43, and tubulin purity was evaluated by polyacrylamide gel electrophoresis, as in Laemmli, U.K., Nature, (1970), […], 680-85. […] Protein concentrations were determined using the Coomassie® Protein Assay Reagent from Pierce (Rockford, Ill.).
Polymerization of microtubule protein was monitored by an increase in turbidity at 37° C. in microtubule assembly buffer containing 100 mM MES, 0.5 mM MgCl2, 1 mM EGTA and 1 mM GTP. See Johnson, K. A. et al., J. Mol. Biol., (1977), 117, 1-31. Polymerization of purified tubulin was measured using the same method except the microtubule assembly buffer contained 4 M glycerol. See Lee, J. C. et al., Biochemistry, (1975), 14, 5183-87. Microtubule protein and tubulin polymerization was initiated by a temperature shift from 0° C. to 37° C. and turbidity was measured on a DU-20 thermocontrolled spectrophotometer from Beckman (Fullerton, Calif.) at 360 nm. Drugs were dissolved in dimethyl sulfoxide (DMSO), which was used in all experiments at a final concentration of 2% (v/v).
For this example, the microtubule protein polymerization assay was performed as follows. Microtubule protein was prepared from bovine brain tissue by two cycles of assembly and disassembly. Polymerization of microtubule protein was monitored by an increase in turbidity at 37° C. in microtubule assembly buffer containing 100 mM MES, 0.5 mM MgCl2, 1 mM EGTA and 1 mM GTP. The polymerization of microtubule protein was initiated by a temperature shift from 0° C. to 37° C. Turbidity was measured on a thermo-controlled spectrophotometer (Beckman DU-20, Fullerton, Calif.) at 360 nm. Compounds were dissolved in DMSO, which was used in all experiments at a final concentration of 2% (v/v).

P388 cells = experiment: P388 proliferation, Alamar Blue assay; format: cell-based, murine; details: Mus musculus, P388; Alamar Blue assay (Table 4); read-out: IC50 for P388 Proliferation
Method: For this example, the Alamar Blue™ assay was performed as follows. Exponentially growing P388 cells were seeded into 96-well tissue culture plates (5×10^3 cells/100 μl/well) and cultured in RPMI 1640 medium supplemented with 10% fetal bovine serum for 16 h. Compounds (DMSO solution) were then added to each well at various concentrations, and the cells were cultured for an additional 48 h. Living cells were counted using Alamar Blue™ (BioSource International, Camarillo, Calif.), according to the method of Ahmed, S. A. et al., J. Immunol. Methods, 170, 211 (1994).

[2] = system: MES-SA (Taxol Sensitive) human uterine sarcoma tumor cell line; experiment: Drug resistant cell line pair, cytotoxicity; format: cell-based
Description: (§1) MES-SA (Taxol Sensitive) and MES-SA DX (Taxol Resistant). This cell line expresses elevated mdr-1 mRNA and P-glycoprotein (an extrusion pump mechanism). Pretreatment with cyclosporin-A (CsA) blocks P-glycoprotein and reinstates activity in the resistant cell line for those compounds for which the resistance is due to elevated P-glycoprotein.

[3] = system: MES-SA DX (Taxol Resistant) human uterine sarcoma tumor cell line; experiment: Drug resistant cell line pair, cytotoxicity; format: cell-based; details: MES-SA DX Resistant
Description: as §1

[4] = system: PC-3 Prostate (human prostate tumor); experiment: Tumor Panel Screen, Resazurin cytotoxicity assay; format: cell-based
Description: (§2) The following cell lines (source in parentheses) were used: HT29 (human colon tumor; ATCC; HTB-38), PC3 (human prostate tumor; ATCC; CRL-1435), MDA-MB-231 (human breast tumor; ATCC; HTB-26), NCI-H292 (human non-small cell lung tumor; ATCC; CRL-1848), OVCAR-3 (human ovarian tumor; ATCC; HTB-161), B16-F10 (murine melanoma; ATCC; CRL-6475) and CCD-27 sk (normal human fibroblast; ATCC; CRL-1475). Cells were maintained at subconfluent densities in their respective culture media.
(§3) Cytotoxicity assays were performed as described above in Example 4, using Resazurin fluorescence as an indicator of cell viability.

[5] = system: CCD-27sk Fibroblast (normal human fibroblast); experiment: Tumor Panel Screen, Resazurin cytotoxicity assay; format: cell-based
Description: as §2, §3

[6] = system: HT-29 Colon (human colon tumor); experiment: Tumor Panel Screen, Resazurin cytotoxicity assay; format: cell-based
Description: as §2, §3

[7] = system: MDA-MB-231 Breast (human breast tumor); experiment: Tumor Panel Screen, Resazurin cytotoxicity assay; format: cell-based
Description: as §2, §3

[8] = system: NCI-H292 Lung (human non-small cell lung tumor); experiment: Tumor Panel Screen, Resazurin cytotoxicity assay; format: cell-based
Description: as §2, §3

[9] = system: OVCAR-3 Ovary (human ovarian tumor); experiment: Tumor Panel Screen, Resazurin cytotoxicity assay; format: cell-based
Description: as §2, §3

[10] = system: B16-F10 Melanoma (murine melanoma); experiment: Tumor Panel Screen, Resazurin cytotoxicity assay; format: cell-based
Description: as §2, §3

T. rubrum isolate #1 = experiment: Antifungal susceptibility testing, broth dilution (NCCLS M38-A); format: cell-based, Trichophyton rubrum; details: dermatophytes
Method: Antifungal susceptibility testing was accomplished according to the methods outlined in the National Committee for Clinical Laboratory Standards, M38-A “Reference Method for Broth Dilution Antifungal Susceptibility Testing of Conidium-Forming Filamentous Fungi; Approved Standard.” This includes testing in RPMI-1640 with glutamine and without bicarbonate, an inoculum size of 0.4-5×10^4, and incubation at 30 or 35° C. for 48 hours. […] Drug concentrations were 0.03-16 μg/ml for the investigational compounds, 0.015-8 μg/ml for itraconazole and griseofulvin.
The minimum lethal concentration (MLC) was determined by plating […] from the MIC concentration and each concentration above the MIC. […] When a MIC was obtained, a minimum fungicidal concentration (MFC) was determined to assess the fungistatic/fungicidal nature of the compound. […] The compound is scored as fungistatic if the cells are able to resume growth and fungicidal if no regrowth is possible because the compound had killed the organisms.

HuVEC monolayer = HuVEC monolayer permeability to FITC-Dextran; format: cell-based, human
Description: This vascular collapse is preceded by a rapid induction of vascular cell permeability initially to electrolytes and soon after to large molecules. The enhanced permeability of HuVEC cells to a fluorescent-labeled dextran is used as a proxy assay for vascular collapse.

MCF-7 human breast tumor = experiment: MCF-7 Human Breast Tumor Xenograft Model; format: in vivo, nude mice; details: in combination with taxotere; compound Days 1, 2, 3, 4, and 7
Method: Female nude mice (˜20 g) were implanted s.c. with 21-day release estrogen (0.25 mg) pellets 24 hours prior to the s.c. implantation with MCF-7 tumor fragments (harvested from s.c. tumors in nude mice hosts). The study then proceeded as described for the HT-29 model, using taxotere as the standard chemotherapy agent.
In this model unless otherwise noted for the individual study, the novel compound was injected via the intraperitoneal route daily on Days 1-5, inclusive (qd×5); taxotere was administered intravenously on Days 1, 3 and 5 (qod×3).
This study considered the effects of t-butyl-phenylahistin in the MCF-7 human breast tumor xenograft model. The doses of the compound were administered on Days 1, 2, 3, 4, and 7; Taxotere was administered on Days 1, 3 and 7.

[11] = system: Caspase-3 in Jurkat cells; experiment: Activation of the caspase cascade; format: cell-based
Description: Several enzymes in the caspase cascade are activated during apoptosis, including Caspase-3, -8 and-9. The activity of Caspase-3 was monitored in Jurkat cells following treatment with t-butyl-phenylahistin.

[12] = system: DU-145 human prostate tumor; experiment: DU-145 Human Prostate Tumor Xenograft Model; format: in vivo, nude mice; details: alone and in combination with taxotere
Method: Male mice were implanted s.c. by trocar with fragments of DU-145 tumors harvested from s.c. growing tumors in nude male mice hosts. When the tumors reached ˜5 mm×5 mm ( at about 13-17 days) the animals were matched into treatment and control groups. The remainder of the study proceeded as for the HT-29 model, using taxotere as the standard chemotherapy agent.
In this model unless otherwise noted for the individual study, test compound was administered via the intraperitoneal route on Days 1, 3, 5, 8 and 11 (q3d×5); taxotere was administered intravenously on Days 1, 3 and 5 (q2d×3).
The study involved an assessment of t-butyl-phenyalhistin alone and in combination with taxotere.

HT-29 human colon tumor = experiment: HT-29 Human Colon Tumor Xenograft Model; format: in vivo, nude mice
Method: Animals used were (exceptions are indicated for individual studies): female nude mice (nu/nu) between 5 and 6 weeks of age (˜20 g, Harlan); group size was 9-10 mice per group unless otherwise indicated. The selected novel compound was administered as monotherapy via the intraperitoneal (i.p.) route at the doses indicated for the individual study; for the combination studies the selected reference chemotherapy agents were injected 15-30 min prior to the compound. Vehicles used in these studies were: 12.5% DMSO, 5% Cremaphor and 82.5% peanut oil for the selected novel compounds; (1:3) Polysorbate 80:13% ethanol for taxotere; […] Saline dilutions are used to achieve the injection concentrations used for the reference compounds. Animals were implanted subcutaneously (s.c.) by trocar with fragments of HT-29 tumors harvested from s.c. growing tumors in nude mice hosts. […] CPT-11 was administered intraperitoneally on days 1, 8 and 15 (qw×3).

[13] = system: HL-60 (Mitoxantrone-Sensitive) human acute promyelocytic leukemia cell line; experiment: Drug resistant cell line pair, cytotoxicity; format: cell-based; details: HL-60 Sensitive
Description: 2) Human Acute Promyelocytic Leukemia Cell Line Pair: HL-60 (Mitoxantrone-Sensitive) and HL-60/MX-2 (Mitoxantrone-Resistant)
This cell line is considered to have atypical drug resistance properties with altered topoisomerase II catalytic activity without overexpression of P-glycoprotein.

[14] = system: HL-60/MX-2 (Mitoxantrone-Resistant) human acute promyelocytic leukemia cell line; experiment: Drug resistant cell line pair, cytotoxicity; format: cell-based; details: HL-60 Resistant
Description: HL-60 (Mitoxantrone-Sensitive) and HL-60/MX-2 (Mitoxantrone-Resistant) This cell line is considered to have atypical drug resistance properties with altered topoisomerase II catalytic activity without overexpression of P-glycoprotein.

[15] = system: tubulin in Human umbilical vein endothelial cells (HuVEC); experiment: Action on microtubule function, staining for α-tubulin; format: cell-based; details: 2 μM, thirty minutes exposure

SMILES: C=CC(C)(C)c1nc[nH]c1/C=C1\NC(=O)C(Cc2ccccc2)NC1=O (stereo not drawn) [Halimide]
cleavage of PARP (PARP in Jurkat cells): active at inducing cleavage of PARP

IC50 [1]: > 200000 nM | melting point: 285 to 286 °C (dec.) | IC50 (P388 cells): 7500 nM
SMILES: Cc1[nH]cnc1C=C1NC(=O)C(Cc2ccccc2)NC1=O (stereo not drawn) [Compound 9]

SMILES: CC(C)(C)c1[nH]cnc1/C=C1\NC(=O)[C@H](Cc2ccccc2)NC1=O [t-butyl-phenylahistin]
IC50 ([2]; CsA Pretreat): 162 nM | IC50 ([2]; No CsA): 144 nM and 122 nM | IC50 ([3]; CsA Pretreat): 622 nM | IC50 ([3]; No CsA): 825 nM and 694 nM | % Cytotoxicity, Mean [4]: 59.5% | IC50 [4]: 174 nM | % Cytotoxicity, Mean [5]: 45% | IC50 [5]: > 20000 nM | % Cytotoxicity, Mean [6]: 88% | IC50 [6]: 420 nM | % Cytotoxicity, Mean [7]: 65.5% | IC50 [7]: 387 nM | % Cytotoxicity, Mean [8]: 65% | IC50 [8]: 384 nM | % Cytotoxicity, Mean [9]: 37% | IC50 [9]: > 20000 nM | % Cytotoxicity, Mean [10]: 74% | IC50 [10]: 736 nM | potency compared to griseofulvin (T. rubrum isolate #1): at least was equivalent in potency | time to induction of HuVEC monolayer permeability (HuVEC monolayer): ≤ 1 h | HuVEC monolayer permeability (HuVEC monolayer; FITC-Dextran): induced significant HuVEC monolayer permeability | effect on estimated tumor growth (MCF-7 human breast tumor): significant potentiation of taxotere | caspase-3 activation [11]: activated in a dose-dependent manner | IC50 (Jurkat cells): 165 nM | tumor growth inhibition indices (excised tumor weights) [12]: marked inhibition of tumor growth | Comments (HT-29 human colon tumor; combination with CPT-11): Synergy | NPI-Compound Result TGI % (HT-29 human colon tumor; monotherapy 30 mg/kg ip q3dx5, study 2139): No Effect | Exceed NCI Criterion (TGI 58%) (HT-29 human colon tumor; study 2139): Combination | Combination Results TGI % (HT-29 human colon tumor; t-butyl-phenylahistin 30 mg/kg ip q3dx5 + CPT-11 100 ip qwx3, p < 0.05 vs Control and vs CPT-11 Alone): 77.7% | IC50 [13]: 255 nM | IC50 [14]: 175 nM | microtubule depolymerization [15]: induced microtubule depolymerization
